Results on one compound are retold here after US11891601B2, “Method to enhance the transcription regulation of SUPT4H on genes containing repetitive nucleotide sequences” (National Yang-Ming University, priority 2018, dated 2024).

The subject of the assay is mutant HTT. The experiment in a line: Mutant HTT protein level in HD-Drosophila by Western blotting. The class given is in vivo, Drosophila melanogaster. As to conditions: 10 μM 6CR plus 100 μM Tropolone in media, fly heads. The method, then:
For Drosophila samples, 15 males and 15 females HD flies were collected after each compound treatment. Their heads were isolated and homogenized with 1× sample buffer (50 mM Tris-HCl pH 7.5, 150 mM NaCl, 1% NP-40, 0.1% sodium dodecyl sulfate (SDS), 1% sodium deoxycholate, and blue dye) for protein lysate collection. Equivalent amounts of protein lysates were separated on 12% SDS-polyacrylamide gel, and then transferred to NC membranes (GE Healthcare Life Science). Detection of HTT and α-tubulin protein was performed as described above.
In each compound treatment experiment, 15 Gmr-ga14-UAS-HTT97Q/cyo male flies were crossed with 15 Gmr-ga14-UAS-HTT-97Q/cyo females in a vial containing 10 mL of media supplemented with the testing compound at a final concentration of 10 μM 6CR (Sigma) or/and 100 μM Tropolone (Sigma). […] In each treatment group, flies were analyzed and normalized with control flies. […]
Please refer to FIG. 8. […] After parent fly removal, the 4-day-old progenies carrying one Gmr-ga14-UAS-HTT97Q allele were collected and analyzed for eye morphology. […] 4-day-old progenies as described above were collected and analyzed the levels of mutant HTT by Western blotting. α-tubulin was included and served as a loading control. […]
For orientation: A western blot detects proteins with antibodies after separation by electrophoresis.

For the compound `O=c1cccccc1O` [Tropolone], the “level of mutant HTT, 6CR with co-treatment of Tropolone” value is recorded as “decreased accordingly”.
